Data from patent US20250082633A1, “COMPOUNDS AND METHODS FOR MODULATING SPLICING” (REMIX THERAPEUTICS INC., priority 2021, published 2025).
Structures can show the parent of a compound that is named as a salt. Where two headings read alike, the source gives them in different places.

Legend:
HTT mRNA = assay: RT-qPCR splicing assay, HTT canonical (CJ) and alternative (AJ) junction mRNA; assay type: cell-based; details: Homo sapiens; for IC50: read-out: HTT CJ IC50; for AC50: read-out: HTT AJ AC50
How it was run: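 Splice-junction mRNAs (CJ, AJ) measured by TaqMan one-step RT-qPCR on cell lysates, using PPIA as reference for adherent A673 and GAPDH or GUSB for K562. Cells exposed for 24 h to 11 threefold concentrations up to 10 uM final, with DMSO at or below 0.25%.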

Target C = assay: HiBit protein abundance assay, Target C; assay type: cell-based; details: Homo sapiens; K562 HiBiT-modified cells, 24 hours, luminescence
Protocol: Compounds described herein were used to screen for effects on quantitative protein abundance using a HiBit assay system (Promega). Quantitative protein abundance was determined by measuring the protein levels of HiBit-tagged protein targets expressed in cell culture via luminescence using the Nano-Glo HiBiT Lytic Detection System, which uses a split complementation assay format to reconstitute NanoBiT enzyme to generate a luminescent signal. A protein abundance assay was developed such that endogenous protein targets could be modified with the HiBiT peptide tag and their abundance could be assessed after compound treatment. Briefly, K562 cell lines containing a HiBiT-modification were treated with various compounds described herein (e.g., compounds of Formulas (I), (II), or (III)). After treatment for 24 hours, the protein abundance of a specific target was determined by measuring luminescence. • Promega Nano-Glo HiBiT Lytic Detection System (cat #N3030) • Corning 384-well TC-treated microplates (cat #3570) • Synthego Engineered Cells Knock-In Clones Cells were maintained in IMDM with 10% FBS. Before the assay, cells were diluted with phenolphthalein-free growth media (IMDM+1% FBS media) and were seeded in a 384-well plate at a density of 10000 cells/well (for each cell line listed in Table 6). Each compound was prepared as a 10-point 3-fold serial dilution in DMSO with the top dose at a final concentration of 10 μM in the well. Unmodified K562 cells were added at the previously specified density with DMSO to serve as an assay baseline and positive control (PC) and DMSO only with the respective modified cell lines was added to the negative control (NC) columns. Final DMSO concentration was kept at or below 0.25%. Treated cell plates were placed in an incubator at 37° C. with 5% CO2 for 24 hours. After 24 hours, 25 μL of Complete HiBit Lytic reagent was added to each well at room temperature (e.g. one plate requiring 10 mL Lytic Buffer, 100 μL LgBiT Protein, 200 μL Lytic Substrate), shaken for 5 minutes at 600 RPM, then left to sit for 10 minutes for signal to stabilize before reading on a Spark Cyto plate reader (Tecan) with a 500 ms measurement time. To determine compound effects on protein abundance of each target in Table 6, the percent response for each respective cell line was calculated at each compound concentration as follows: For the normalized response at each concentration, a four-parameter logistical regression was fit to the data and the response was interpolated at the 50% value to determine a concentration for protein abundance at 50% (IC50) the untreated control.

[1] = decrease in CJ mRNA levels, larger panel of genes, Table 3
[2] = decrease in canonical junction mRNA, A673 or K562 cells, 24 hours treatment, Table 2
[3] = increase in alternative junction mRNA, A673 or K562 cells, 24 hours treatment, Table 2

Row | Compound | IC50 (HTT mRNA; [1]) [nM] | IC50 (HTT mRNA; [2]) [nM] | AC50 (HTT mRNA; [3]) [nM] | IC50 (Target C) [nM] | AC50 (HTT mRNA; 24 h) [nM] | IC50 (HTT mRNA; 24 h) [nM] | IC50 (HTT mRNA) [nM]
1 | Cc1ncc2cc(-c3cc(F)c4nn(C5CCNCC5)cc4c3)ccc2n1 [Compound 165, 6-[7-fluoro-2-(4-piperidyl)indazol-5-yl]-2-methyl-quinazoline] | > 10000 | > 10000 | > 10000 | > 10000 |  |  | 
2 | Cc1ccc2cc(-c3cc(F)c4nn(C5CCNCC5)cc4c3)ccc2n1 [Compound 163, 6-[7-fluoro-2-(4-piperidyl)indazol-5-yl]-2-methyl-quinoline] | > 10000 | > 10000 | > 10000 | 1000 to 10000 |  |  | 
3 | Cc1cc(-c2cc(F)c3nn(C4CCNCC4)cc3c2)cc2cn(C)nc12 [Compound 133, 5-(2,7-dimethylindazol-5-yl)-7-fluoro-2-(4-piperidyl)indazole] | < 100 | < 100 | < 100 | < 100 |  |  | 
4 | CCN1CCC(n2cc3cc(-c4cc(C)c5nc(C)cn5n4)cc(F)c3n2)CC12CC2 (centres unmarked) [Compound 177, 6-[2-(4-ethyl-4-azaspiro[2.5]octan-7-yl)-7-fluoro-indazol-5-yl]-2,8-dimethyl-imidazo[1,2-b]pyridazine] | < 100 | < 100 | < 100 | < 100 |  |  | 
5 | Cc1cn2nc(-c3ccc4nn(C5CCNCC5)cc4n3)cc(C)c2n1 [Compound 138, 2,8-dimethyl-6-[2-(4-piperidyl)pyrazolo[4,3-b]pyridin-5-yl]imidazo[1,2-b]pyridazine] | < 100 | < 100 | 100 to 1000 | 100 to 1000 |  |  | 
6 | Cc1nc2ccc(-c3cc(F)c4nn(C5CCNCC5)cc4c3)cc2o1 [Compound 135, 6-[7-fluoro-2-(4-piperidyl)indazol-5-yl]-2-methyl-1,3-benzoxazole] | 100 to 1000 | 100 to 1000 | 100 to 1000 | 100 to 1000 |  |  | 
7 | Cc1cc(-n2cc3cc(N4CCNCC4)ccc3n2)cc2cn(C)nc12 [Compound 121, 2,7-dimethyl-5-(5-piperazin-1-ylindazol-2-yl)indazole] | > 10000 | > 10000 | > 10000 | > 10000 |  |  | 
8 | Cc1cn2nc(-c3cc(O)c4nn(C5CCNCC5)cc4c3)cc(C)c2n1 [Compound 156, 5-(2,8-dimethylimidazo[1,2-b]pyridazin-6-yl)-2-(piperidin-4-yl)-2H-indazol-7-ol] | 100 to 1000 | 100 to 1000 | 100 to 1000 | 1000 to 10000 |  |  | 
9 | Cc1cn2cc(-c3cc(F)c4nn(C5CCNCC5)cc4c3)cc(Cl)c2n1 [Compound 127, 5-(8-chloro-2-methylimidazo[1,2-a]pyridin-6-yl)-7-fluoro-2-(piperidin-4-yl)-2H-indazole hydrochloride salt] | < 100 | < 100 | 100 to 1000 | < 100 |  |  | 
10 | Cc1c(O)c(-c2ccc3nn(C4CCNCC4)nc3n2)cc2cn(C)nc12 [Compound 113, 2,7-dimethyl-5-[2-(4-piperidyl)triazolo[4,5-b]pyridin-5-yl]indazol-6-ol] | 1000 to 10000 | 1000 to 10000 | 1000 to 10000 | 1000 to 10000 |  |  | 
11 | COC1=C(C)C2N=C(C)OC2C=C1c1cc(F)c2nn(C3CCNCC3)cc2n1 (centres unmarked) [Compound 144] | > 10000 | > 10000 | > 10000 | 1000 to 10000 |  |  | 
12 | Cn1cc2cc(-c3cc(F)c4nn(C5CCNCC5)nc4c3)cc(F)c2n1 [Compound 103, 4-fluoro-6-(7-fluoro-2-methyl-indazol-5-yl)-2-(4-piperidyl) benzotriazole] | 100 to 1000 | 100 to 1000 | 100 to 1000 | 100 to 1000 |  |  | 
13 | Cc1cc(-n2cc3cc(C4CCNCC4)cc(F)c3n2)cc2cn(C)nc12 [Compound 115, 2-(2,7-dimethylindazol-5-yl)-7-fluoro-5-(4-piperidyl)indazole] | 1000 to 10000 | 1000 to 10000 | 1000 to 10000 | 1000 to 10000 |  |  | 
14 | CCN1CCC(n2cc3cc(-c4cc(F)c5nn(C)cc5c4)cc(F)c3n2)CC1 [Compound 104, 2-(1-ethyl-4-piperidyl)-7-fluoro-5-(7-fluoro-2-methyl-indazol-5-yl)indazole] | 100 to 1000 | 100 to 1000 | 100 to 1000 | 100 to 1000 |  |  | 
15 | Cc1nc2c(C)cc(-n3cc4cc(N5CCNCC5)cc(F)c4n3)cc2o1 [Compound 119, 6-(7-fluoro-5-piperazin-1-yl-indazol-2-yl)-2,4-dimethyl-1,3-benzoxazole] | > 10000 | > 10000 | > 10000 | > 10000 |  |  | 
16 | Cc1nc2c(C)c(O)c(-c3cc(F)c4nn(C5CCNCC5)cc4c3)cc2o1 [Compound 123, 6-[7-fluoro-2-(4-piperidyl)indazol-5-yl]-2,4-dimethyl-1,3-benzoxazol-5-ol] | 100 to 1000 | 100 to 1000 | 100 to 1000 | 100 to 1000 |  |  | 
17 | Cc1cn2cc(-c3cc(F)c4nn(C5CCNCC5)cc4c3)cc(F)c2n1 [Compound 129, 7-fluoro-5-(8-fluoro-2-methylimidazo[1,2-a]pyridin-6-yl)-2-(piperidin-4-yl)-2H-indazole] | < 100 | < 100 | < 100 | < 100 |  |  | 
18 | Cc1cn2nc(-c3cc(F)c4nn(C5CCN(C6CCC6)CC5)cc4c3)cc(C)c2n1 [Compound 151, 6-[2-(1-cyclobutyl-4-piperidyl)-7-fluoro-indazol-5-yl]-2,8-dimethyl-imidazo [1,2-b] pyridazine] |  |  |  | < 100 | < 100 | < 100 | < 100
19 | Fc1cc(-c2ccc3ncccc3c2)cc2cn(C3CCNCC3)nc12 [Compound 162, 6-[7-fluoro-2-(4-piperidyl)indazol-5-yl]quinoline] | > 10000 | > 10000 | > 10000 | 1000 to 10000 |  |  | 
20 | Cn1cc2cc(-c3cc(F)c4nn(C5CCNCC5)cc4c3)ccc2n1 [Compound 145, 7-fluoro-5-(2-methylindazol-5-yl)-2-(4-piperidyl)indazole] | 100 to 1000 | 100 to 1000 | 100 to 1000 | 100 to 1000 |  |  | 
21 | COc1cc(-c2cc(C)c3nc(C)cn3n2)cc2cn(C3CCNCC3)nc12 [Compound 155, 6-(7-methoxy-2-(piperidin-4-yl)-2H-indazol-5-yl)-2,8-dimethylimidazo [1,2-b]pyridazine] | < 100 | < 100 | 100 to 1000 | 100 to 1000 |  |  | 
22 | Cc1cn2nc(-c3cc(F)c4nn(C5CCNC6(CC6)C5)cc4c3)cc(C)c2n1 (centres unmarked) [Compound 171, 6-[2-(4-azaspiro[2.5]octan-7-yl)-7-fluoro-indazol-5-yl]-2,8-dimethyl-imidazo[1,2-b]pyridazine] | < 100 | < 100 | < 100 | < 100 |  |  | 
23 | Cn1cc2cc(-c3ccc4nn(C5CCNCC5)cc4n3)c(O)cc2n1 [Compound 110, 2-methyl-5-[2-(4-piperidyl)pyrazolo[4,3-b]pyridin-5-yl]indazol-6-ol] | 100 to 1000 | 100 to 1000 | 1000 to 10000 | 100 to 1000 |  |  | 
24 | Cc1cn2nc(-c3cc(F)c4nn(CC5CCNCC5)cc4c3)cc(C)c2n1 [Compound 212, 6-[7-fluoro-2-(4-piperidylmethyl)indazol-5-yl]-2,8-dimethyl-imidazo[1,2-b]pyridazine] | < 100 | < 100 | < 100 | < 100 |  |  | 
25 | Cc1cn2nc(-c3cc(F)c4nn(C5CCN(C6CCC6)C6(CC6)C5)cc4c3)cc(C)c2n1 (centres unmarked) [Compound 186, 6-[2-(4-cyclobutyl-4-azaspiro[2.5]octan-7-yl)-7-fluoro-indazol-5-yl]-2,8-dimethyl-imidazo[1,2-b]pyridazine] |  |  |  | < 100 | < 100 | < 100 | < 100
26 | Cn1cc2cc(-c3ccc4nn(C5CCNCC5)cc4c3)cc(F)c2n1 [Compound 105, 7-fluoro-2-methyl-5-[2-(4-piperidyl)indazol-5-yl]indazole] | 100 to 1000 | 100 to 1000 | 100 to 1000 | 100 to 1000 |  |  | 
